PMC5218480 (PLoS ONE, 2017)

System: MV-4-11 cells
Experiment: Gene expression microarray analysis (Affymetrix PrimeView) and GSEA
Assay type: cell-based, human
Set-up: RFU PODN (11730768_x_at) / Fold change /veh PODN (11730768_x_at) / RFU LINC00158 (11744669_a_at) / Fold change /veh LINC00158 (11744669_a_at) / RFU DUSP10 (11751237_a_at) / Fold change /veh DUSP10 (11751237_a_at) / RFU ID3 (11757404_x_at) / Fold change /veh ID3 (11757404_x_at) / RFU PLEKHG5 (11737974_s_at) / Fold change /veh PLEKHG5 (11737974_s_at) / RFU LRRC4B (11730491_at) / Fold change /veh LRRC4B (11730491_at) / RFU GIMAP4 (11747438_a_at) / Fold change /veh GIMAP4 (11747438_a_at) / RFU KRT8 (11758183_x_at) / Fold change /veh KRT8 (11758183_x_at) / RFU CNN1 (11734310_a_at) / Fold change /veh CNN1 (11734310_a_at) / RFU VPS37D (11726825_at) / Fold change /veh VPS37D (11726825_at) / RFU C10orf10 (11716522_x_at) / Fold change /veh C10orf10 (11716522_x_at) / RFU KIR2DL2 /// KIR2DL4 /// KIR2DL5A /// KIR2DL5B /// KIR2DS1 /// KIR2DS2 /// KIR2DS3 /// KIR2DS4 /// KIR3DL3 /// KIR3DL3 /// KIR3DS1 (11738374_at) / Fold change /veh KIR2DL2 /// KIR2DL4 /// KIR2DL5A /// KIR2DL5B /// KIR2DS1 /// KIR2DS2 /// KIR2DS3 /// KIR2DS4 /// KIR3DL3 /// KIR3DL3 /// KIR3DS1 (11738374_at) / RFU C1QL1 (11718748_at) / Fold change /veh C1QL1 (11718748_at) / RFU TMPRSS4 (11747572_a_at) / Fold change /veh TMPRSS4 (11747572_a_at) / RFU HAMP (11756126_x_at) / Fold change /veh HAMP (11756126_x_at) / RFU RNFT2 (11725882_a_at) / Fold change /veh RNFT2 (11725882_a_at) / RFU NR4A2 (11747474_a_at) / Fold change /veh NR4A2 (11747474_a_at) / RFU ABCC12 (11746883_a_at) / Fold change /veh ABCC12 (11746883_a_at) / RFU TMEM136 (11760407_x_at) / Fold change /veh TMEM136 (11760407_x_at) / RFU CLDN22 /// WWC2 (11732394_at) / Fold change /veh CLDN22 /// WWC2 (11732394_at) / RFU HLA-DPB1 (11760878_x_at) / Fold change /veh HLA-DPB1 (11760878_x_at) / RFU SPINT1 (11716480_a_at) / Fold change /veh SPINT1 (11716480_a_at) / RFU GAP43 (11754022_s_at) / Fold change /veh GAP43 (11754022_s_at) / RFU A4GNT (11735810_at) / Fold change /veh A4GNT (11735810_at) / RFU PRB3 (11715151_x_at) / Fold change /veh PRB3 (11715151_x_at) / RFU TUBB4B (11761932_at) / Fold change /veh TUBB4B (11761932_at) / RFU CAPN14 (11732068_a_at) / Fold change /veh CAPN14 (11732068_a_at) / RFU TMCC2 (11721928_a_at) / Fold change /veh TMCC2 (11721928_a_at) / RFU IRGQ (11745062_a_at) / Fold change /veh IRGQ (11745062_a_at) / RFU FAM174B (11720279_a_at) / Fold change /veh FAM174B (11720279_a_at) / RFU TMPRSS4 (11748680_a_at) / Fold change /veh TMPRSS4 (11748680_a_at) / RFU FAM212B (11763350_a_at) / Fold change /veh FAM212B (11763350_a_at) / RFU PLEKHG5 (11743358_a_at) / Fold change /veh PLEKHG5 (11743358_a_at) / RFU ZSCAN30 (11745921_a_at) / Fold change /veh ZSCAN30 (11745921_a_at) / RFU CMKLR1 (11741424_a_at) / Fold change /veh CMKLR1 (11741424_a_at) / RFU LOC101060620 /// MAPK8IP1 (11723275_at) / Fold change /veh LOC101060620 /// MAPK8IP1 (11723275_at) / RFU SPTSSB (11747773_x_at) / Fold change /veh SPTSSB (11747773_x_at) / RFU PRSS12 (11739890_at) / Fold change /veh PRSS12 (11739890_at) / RFU BIN1 (11741810_x_at) / Fold change /veh BIN1 (11741810_x_at) / RFU WNT11 (11732464_a_at) / Fold change /veh WNT11 (11732464_a_at) / RFU C10orf10 (11716521_a_at) / Fold change /veh C10orf10 (11716521_a_at) / RFU C5orf56 (11738089_at) / Fold change /veh C5orf56 (11738089_at) / RFU CYB561 (11721691_x_at) / Fold change /veh CYB561 (11721691_x_at) / RFU ANKRD19P (11752326_a_at) / Fold change /veh ANKRD19P (11752326_a_at) / RFU OR2T12 /// OR2T33 /// OR2T8 (11738714_s_at) / Fold change /veh OR2T12 /// OR2T33 /// OR2T8 (11738714_s_at) / RFU VCAN (11748164_a_at) / Fold change /veh VCAN (11748164_a_at) / RFU JSRP1 (11732532_at) / Fold change /veh JSRP1 (11732532_at) / RFU KRTAP10-11 (11738290_x_at) / Fold change /veh KRTAP10-11 (11738290_x_at) / RFU MYO3A (11730013_a_at) / Fold change /veh MYO3A (11730013_a_at) / RFU EBF3 (11725865_a_at) / Fold change /veh EBF3 (11725865_a_at) / RFU CAMK2N1 (11719241_x_at) / Fold change /veh CAMK2N1 (11719241_x_at) / RFU C5orf56 (11738088_a_at) / Fold change /veh C5orf56 (11738088_a_at) / RFU OLFML3 (11715873_a_at) / Fold change /veh OLFML3 (11715873_a_at) / RFU LOC100653217 /// NTM (11731650_a_at) / Fold change /veh LOC100653217 /// NTM (11731650_a_at) / RFU MAPK11 (11762145_a_at) / Fold change /veh MAPK11 (11762145_a_at) / RFU FIZ1 (11724087_x_at) / Fold change /veh FIZ1 (11724087_x_at) / RFU OASL (11726364_x_at) / Fold change /veh OASL (11726364_x_at) / RFU SOX15 (11748057_x_at) / Fold change /veh SOX15 (11748057_x_at) / RFU CD79A (11719716_a_at) / Fold change /veh CD79A (11719716_a_at) / RFU HIST1H1D (11736915_at) / Fold change /veh HIST1H1D (11736915_at) / RFU CASKIN2 (11723855_a_at) / Fold change /veh CASKIN2 (11723855_a_at) / RFU LOC730098 (11760151_x_at) / Fold change /veh LOC730098 (11760151_x_at) / RFU OR4N2 (11742367_at) / Fold change /veh OR4N2 (11742367_at) / RFU PRRT2 (11749266_a_at) / Fold change /veh PRRT2 (11749266_a_at) / RFU SNX32 (11753110_a_at) / Fold change /veh SNX32 (11753110_a_at) / RFU CDHR5 (11726645_a_at) / Fold change /veh CDHR5 (11726645_a_at) / RFU RCAN1 (11760418_a_at) / Fold change /veh RCAN1 (11760418_a_at) / RFU FAM167A (11723789_a_at) / Fold change /veh FAM167A (11723789_a_at) / RFU FAM26E (11764081_at) / Fold change /veh FAM26E (11764081_at) / RFU ISYNA1 (11749810_s_at) / Fold change /veh ISYNA1 (11749810_s_at) / RFU ACY1 (11761880_at) / Fold change /veh ACY1 (11761880_at) / RFU 11764098_at / Fold change /veh 11764098_at / RFU SAMD14 (11745864_x_at) / Fold change /veh SAMD14 (11745864_x_at) / RFU NPB (11741838_a_at) / Fold change /veh NPB (11741838_a_at) / RFU TMPRSS6 (11731388_a_at) / Fold change /veh TMPRSS6 (11731388_a_at) / RFU KRTAP10-2 (11738614_at) / Fold change /veh KRTAP10-2 (11738614_at) / RFU ARHGAP8 /// PRR5-ARHGAP8 (11727945_x_at) / Fold change /veh ARHGAP8 /// PRR5-ARHGAP8 (11727945_x_at) / RFU KRTAP5-7 /// NADSYN1 (11734609_at) / Fold change /veh KRTAP5-7 /// NADSYN1 (11734609_at) / RFU RASL12 (11751679_a_at) / Fold change /veh RASL12 (11751679_a_at) / RFU CDKN2B (11736163_a_at) / Fold change /veh CDKN2B (11736163_a_at) / RFU PRF1 (11729649_at) / Fold change /veh PRF1 (11729649_at) / RFU, ZNF638 /// ZNF638-IT1 / Fold change vs veh, ZNF638 /// ZNF638-IT1 / RFU, PANK3 / Fold change vs veh, PANK3 / RFU, SH3YL1 / Fold change vs veh, SH3YL1 / RFU, ZEB2 / Fold change vs veh, ZEB2 / RFU, NRIP1 / Fold change vs veh, NRIP1 / RFU, PTTG1IP / Fold change vs veh, PTTG1IP / RFU, CAPN2 / Fold change vs veh, CAPN2 / RFU, MED14 / Fold change vs veh, MED14 / RFU, SNORA58 / Fold change vs veh, SNORA58 / RFU, C1orf63 / Fold change vs veh, C1orf63 / RFU, LRRFIP1 / Fold change vs veh, LRRFIP1 / RFU, NDUFAF7 / Fold change vs veh, NDUFAF7 / RFU, SLC12A2 / Fold change vs veh, SLC12A2 / RFU, IBTK / Fold change vs veh, IBTK / RFU, ESF1 / Fold change vs veh, ESF1 / Fold change vs veh, TMEM50B / RFU, TAOK1 / Fold change vs veh, TAOK1 / RFU, ACBD3 / Fold change vs veh, ACBD3 / RFU, TMA16 / Fold change vs veh, TMA16 / RFU, RWDD3 / Fold change vs veh, RWDD3 / RFU, BCAT1 / Fold change vs veh, BCAT1 / RFU, EDEM3 / Fold change vs veh, EDEM3 / RFU, TMEM33 / Fold change vs veh, TMEM33 / RFU, WDR75 / Fold change vs veh, WDR75 / RFU, AHCTF1 / Fold change vs veh, AHCTF1 / RFU, TFRC / Fold change vs veh, TFRC / RFU, ZDHHC17 / Fold change vs veh, ZDHHC17 / RFU, NOM1 / Fold change vs veh, NOM1 / RFU, ARL8B / Fold change vs veh, ARL8B / RFU, ZBTB11 / Fold change vs veh, ZBTB11 / RFU, TAMM41 / Fold change vs veh, TAMM41 / RFU, KIAA1704 /// LOC100996395 / Fold change vs veh, KIAA1704 /// LOC100996395 / RFU, ING1 / Fold change vs veh, ING1 / RFU, TRMT61B / Fold change vs veh, TRMT61B / RFU, FUBP3 / Fold change vs veh, FUBP3 / RFU, TP53 / Fold change vs veh, TP53 / RFU, TNKS2 / Fold change vs veh, TNKS2 / RFU, ZFP14 / Fold change vs veh, ZFP14 / RFU, ACTR2 / Fold change vs veh, ACTR2 / RFU, PPP3R1 / Fold change vs veh, PPP3R1 / RFU, PIK3R1 / Fold change vs veh, PIK3R1 / RFU, HNRNPA1 / Fold change vs veh, HNRNPA1 / RFU, RNF170 / Fold change vs veh, RNF170 / RFU, ZNF28 / Fold change vs veh, ZNF28 / RFU, RNGTT / Fold change vs veh, RNGTT / RFU, OGT / Fold change vs veh, OGT / RFU, BRD1 / Fold change vs veh, BRD1 / RFU, MARS / Fold change vs veh, MARS / RFU, ZNF655 / Fold change vs veh, ZNF655 / RFU, FAHD1 / Fold change vs veh, FAHD1 / RFU, BDP1 / Fold change vs veh, BDP1 / RFU, LRRCC1 / Fold change vs veh, LRRCC1 / RFU, ARID1A / Fold change vs veh, ARID1A / RFU, ZNF146 / Fold change vs veh, ZNF146 / RFU, ZNF330 / Fold change vs veh, ZNF330 / RFU, GPN3 / Fold change vs veh, GPN3 / RFU, C9orf123 / Fold change vs veh, C9orf123 / RFU, N4BP2L2 / Fold change vs veh, N4BP2L2 / RFU, ARFIP1 / Fold change vs veh, ARFIP1 / RFU, FAM179B / Fold change vs veh, FAM179B / RFU, BCL10 / Fold change vs veh, BCL10 / RFU, UHRF1BP1L / Fold change vs veh, UHRF1BP1L / RFU, BET1 / Fold change vs veh, BET1 / RFU, CNOT2 / Fold change vs veh, CNOT2 / RFU, ZNF268 / Fold change vs veh, ZNF268 / Fold change vs veh, ZNF507 / RFU, DGCR2 / Fold change vs veh, DGCR2 / RFU, WDSUB1 / Fold change vs veh, WDSUB1 / Fold change vs veh, HSP90B1 /// MIR3652 / RFU, ADSS / Fold change vs veh, ADSS / RFU, GK / Fold change vs veh, GK / RFU, ZNF148 / Fold change vs veh, ZNF148 / RFU, TAF9 / Fold change vs veh, TAF9 / RFU, SLC1A5 / Fold change vs veh, SLC1A5 / RFU, SLMO2 / Fold change vs veh, SLMO2 / RFU, ABCC4 / Fold change vs veh, ABCC4 / RFU, LOC101060439 /// RAP1B / Fold change vs veh, LOC101060439 /// RAP1B / RFU, RFX7 / Fold change vs veh, RFX7 / RFU, GTPBP10 / Fold change vs veh, GTPBP10 / RFU, CNEP1R1 / Fold change vs veh, CNEP1R1 / RFU, BIVM-ERCC5 /// ERCC5 / Fold change vs veh, BIVM-ERCC5 /// ERCC5 / RFU, ILF3 / Fold change vs veh, ILF3 / RFU 11762660_at / Fold change /veh 11762660_at / RFU VCAN (11757783_s_at) / Fold change /veh VCAN (11757783_s_at) / RFU DDX43 (11728927_at) / Fold change /veh DDX43 (11728927_at) / RFU KRT8 (11758188_x_at) / Fold change /veh KRT8 (11758188_x_at) / RFU NKD1 (11759106_at) / Fold change /veh NKD1 (11759106_at) / RFU SRD5A1 (11742802_a_at) / Fold change /veh SRD5A1 (11742802_a_at) / RFU TPSAB1 /// TPSB2 (11721975_s_at) / Fold change /veh TPSAB1 /// TPSB2 (11721975_s_at) / RFU GSTM3 (11746129_a_at) / Fold change /veh GSTM3 (11746129_a_at) / RFU IL23R (11737362_x_at) / Fold change /veh IL23R (11737362_x_at) / RFU TMEM51 (11727254_a_at) / Fold change /veh TMEM51 (11727254_a_at) / RFU PIWIL2 (11732686_x_at) / Fold change /veh PIWIL2 (11732686_x_at) / RFU ORM1 (11744905_x_at) / Fold change /veh ORM1 (11744905_x_at) / RFU CCDC152 (11743942_at) / Fold change /veh CCDC152 (11743942_at) / RFU ECM1 (11717891_a_at) / Fold change /veh ECM1 (11717891_a_at) / RFU IL23R (11748794_a_at) / Fold change /veh IL23R (11748794_a_at) / RFU TNFAIP8L3 (11732012_x_at) / Fold change /veh TNFAIP8L3 (11732012_x_at) / RFU MBOAT4 (11741988_at) / Fold change /veh MBOAT4 (11741988_at) / RFU 11764193_at / Fold change /veh 11764193_at / RFU TMEM53 (11763286_at) / Fold change /veh TMEM53 (11763286_at) / RFU MAGEB2 (11727129_at) / Fold change /veh MAGEB2 (11727129_at) / RFU TMEM200A (11744735_a_at) / Fold change /veh TMEM200A (11744735_a_at) / RFU CCDC152 (11751479_a_at) / Fold change /veh CCDC152 (11751479_a_at) / RFU FAM211A (11726209_a_at) / Fold change /veh FAM211A (11726209_a_at) / RFU RGS16 (11746705_a_at) / Fold change /veh RGS16 (11746705_a_at) / RFU VCAN (11755009_s_at) / Fold change /veh VCAN (11755009_s_at) / RFU RHOB (11743442_s_at) / Fold change /veh RHOB (11743442_s_at) / RFU RGS16 (11720943_a_at) / Fold change /veh RGS16 (11720943_a_at) / RFU RGS16 (11720944_at) / Fold change /veh RGS16 (11720944_at) / RFU, VPS4B / Fold change vs veh, VPS4B / RFU, CREB1 / Fold change vs veh, CREB1 / RFU, DNAJC13 / Fold change vs veh, DNAJC13 / RFU, GNAQ / Fold change vs veh, GNAQ / RFU, CDK5R1 / Fold change vs veh, CDK5R1 / RFU, ZRANB3 / Fold change vs veh, ZRANB3 / RFU, CUL4A / Fold change vs veh, CUL4A / RFU, CCNY / Fold change vs veh, CCNY / RFU, UFL1 / Fold change vs veh, UFL1 / RFU, COG3 / Fold change vs veh, COG3 / RFU, DIAPH2 / Fold change vs veh, DIAPH2 / RFU, SKA2 / Fold change vs veh, SKA2 / RFU, AFF3 / Fold change vs veh, AFF3 / RFU, LMF1 / Fold change vs veh, LMF1 / RFU, IPO11 / Fold change vs veh, IPO11 / RFU, DFFB / Fold change vs veh, DFFB / RFU, FOXP1 / Fold change vs veh, FOXP1 / RFU, CARD8 / Fold change vs veh, CARD8 / RFU, STRN3 / Fold change vs veh, STRN3 / RFU, ADK / Fold change vs veh, ADK / RFU, RASSF2 / Fold change vs veh, RASSF2 / RFU, WIPF1 / Fold change vs veh, WIPF1 / RFU, LARP1B / Fold change vs veh, LARP1B / RFU, RASA1 / Fold change vs veh, RASA1 / RFU, RB1 / Fold change vs veh, RB1 / RFU, PPFIA1 / Fold change vs veh, PPFIA1 / RFU, MAT2A / Fold change vs veh, MAT2A / RFU, CCT5 / Fold change vs veh, CCT5 / RFU, WDR92 / Fold change vs veh, WDR92 / RFU, CUX1 / Fold change vs veh, CUX1 / RFU, TTC7A / Fold change vs veh, TTC7A / RFU, TMEM135 / Fold change vs veh, TMEM135 / RFU, DEPTOR / Fold change vs veh, DEPTOR / RFU, CPM / Fold change vs veh, CPM / RFU, DNAJB6 / Fold change vs veh, DNAJB6 / RFU, CACNA2D3 / Fold change vs veh, CACNA2D3 / RFU, DTX4 / Fold change vs veh, DTX4 / RFU, TFCP2 / Fold change vs veh, TFCP2 / RFU, GMCL1 /// GMCL1P1 / Fold change vs veh, GMCL1 /// GMCL1P1 / RFU, AEBP2 / Fold change vs veh, AEBP2 / RFU, SNHG1 /// SNORD22 /// SNORD25 /// SNORD26 /// SNORD27 /// SNORD28 /// SNORD29 /// SNORD31 / Fold change vs veh, SNHG1 /// SNORD22 /// SNORD25 /// SNORD26 /// SNORD27 /// SNORD28 /// SNORD29 /// SNORD31 / Fold change (Aza/veh), C12orf56 (ProbeSet 11735607_a_at) / Fold change (ACY-1035/veh), C12orf56 (ProbeSet 11735607_a_at) / Fold change (Aza/veh), FGFR1OP (ProbeSet 11751329_s_at) / Fold change (ACY-1035/veh), FGFR1OP (ProbeSet 11751329_s_at) / Fold change (Aza/veh), VPS36 (ProbeSet 11739960_a_at) / Fold change (ACY-1035/veh), VPS36 (ProbeSet 11739960_a_at) / RFU SYPL1 (11715823_x_at) / Fold change /veh SYPL1 (11715823_x_at) / RFU IGFBP7 (11715501_s_at) / Fold change /veh IGFBP7 (11715501_s_at) / RFU REEP3 (11722064_at) / Fold change /veh REEP3 (11722064_at) / RFU IGLL1 (11728026_x_at) / Fold change /veh IGLL1 (11728026_x_at): dose or concentration left out as unconfirmed
Conditions: MV-4-11 cells, 48 hours

**Q.** How did the “RFU OASL (11726364_x_at)” value turn out when `Nc1ncn([C@@H]2O[C@H](CO)[C@@H](O)[C@H]2O)c(=O)n1` [azacitidine] was run?
**A.** Its value is 34.50 RFU.
